According to ChEMBL document CHEMBL2396570, “Structural basis for the design and synthesis of selective HDAC inhibitors” (Bioorg Med Chem, 2013):

Experiments:
[1] = organism: Homo sapiens; assay: Selectivity ratio for human HDAC4 over human HDAC2
[2] = organism: Homo sapiens; assay: Selectivity ratio for human HDAC4 over human HDAC1
[3] = organism: Homo sapiens; assay: Selectivity ratio for human HDAC4 over human HDAC8
[4] = organism: Homo sapiens; assay: Selectivity ratio for human HDAC4 over human HDAC3

Measured: Selectivity ratio

Cn1cc(/C=C/C(=O)c2cccc(F)c2)cc1/C=C/C(=O)NO
176: [1] | [2] | [3] | [4]
